The target in the assay is T1, CRTh2 receptor (Homo sapiens, UniProt Q9Y5Y4).
T1 construct: expressed in transfected cells; host or cells: CHO.K1 cells (membranes)
T1 sequence (Q9Y5Y4 1-395): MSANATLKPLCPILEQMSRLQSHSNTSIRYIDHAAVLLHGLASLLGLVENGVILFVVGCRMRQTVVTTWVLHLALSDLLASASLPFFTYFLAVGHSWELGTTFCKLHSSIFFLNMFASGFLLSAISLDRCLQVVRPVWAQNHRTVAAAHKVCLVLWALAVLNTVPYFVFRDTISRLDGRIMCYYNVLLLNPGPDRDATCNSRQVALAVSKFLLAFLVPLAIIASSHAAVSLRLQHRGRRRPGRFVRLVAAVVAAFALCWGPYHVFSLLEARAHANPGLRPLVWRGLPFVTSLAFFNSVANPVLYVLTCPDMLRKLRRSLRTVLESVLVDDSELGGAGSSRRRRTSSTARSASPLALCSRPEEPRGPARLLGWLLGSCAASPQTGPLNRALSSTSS
The experiment in a line: CRTh2 GTPγS antagonism binding assay. The following applies: membranes from CHO.K1 cells stably overexpressing the CRTh2 receptor; PGD2 at 50 nM (EC80); [35S]-GTPγS as radioligand; read-out: GTPγ Binding. The class given is biochemical. As to the method: CRTh2 GTPγS antagonism binding assay
The assay is performed using membranes obtained from CHO.K1 cells stably overexpressing the CRTh2 receptor and [^35S]-GTPγS as radioligand. Assay is performed pre-incubating 4-8 µg of membranes per well with the compound to be tested for 1 h, followed by incubation with PGD2 at 50 nM (EC80), 0.1 nM [^35S]-GTPγS in incubation buffer (20 mM HEPES, 10 mM MgCl2, 100 mM NaCl, 10 µM GDP, 10 µg/ml Saponine and 0.2% BSA) for 2 h at room temperature. The reaction is terminated by filtering in GF/C plates pre-treated with 20 mM HEPES, 10 mM MgCl2, 100 mM NaCl and washing 6 times with wash buffer (20 mM NaH2PO4, 20 mM Na2HPO4). After washing, plates are dried and scintillation buffer Optiphase added. The radioactivity retained in the filter is counted using a Microbeta liquid scintillation counter.

As to `Cc1c(Cc2ccccc2S(=O)(=O)c2ccccc2)c2c(n1CC(=O)O)CCNC2=O` [Example 2, {2-Methyl-4-oxo-3-[2-(phenylsulfonyl)benzyl]-4,5,6,7-tetrahydro-1H-pyrrolo[3,2-c]pyridin-1-yl}acetic acid], the IC50 stood at 4.6 nM.
For `Cc1c(Cc2ccccc2S(=O)(=O)c2ccc(F)cc2)c2c(n1CC(=O)O)CCNC2=O` [Example 4, (3-{2-[(4-Fluorophenyl)sulfonyl]benzyl}-2-methyl-4-oxo-4,5,6,7-tetrahydro-1H-pyrrolo[3,2-c]pyridin-1-yl)acetic acid] the value was 3.2 nM; for `COc1ccc(S(=O)(=O)c2ccccc2)c(Cc2c3c(n(CC(=O)O)c2C)CCNC3=O)c1` [Example 6, {3-[5-Methoxy-2-(phenylsulfonyl)benzyl]-2-methyl-4-oxo-4,5,6,7-tetrahydro-1H-pyrrolo[3,2-c]pyridin-1-yl}acetic acid], 3.6 nM; for `Cc1c(Cc2ccccc2S(=O)(=O)c2cccc(Cl)c2)c2c(n1CC(=O)O)CCNC2=O` [Example 8, (3-{2-[(3-Chlorophenyl)sulfonyl]benzyl}-2-methyl-4-oxo-4,5,6,7-tetrahydro-1H-pyrrolo[3,2-c]pyridin-1-yl)acetic acid], 4 nM.
Turning to `Cc1c(Cc2ccc(C(F)(F)F)cc2S(=O)(=O)c2ccccc2)c2c(n1CC(=O)O)CCNC2=O` [Example 10, {2-Methyl-4-oxo-3-[2-(phenylsulfonyl)-4-(trifluoromethyl)benzyl]-4,5,6,7-tetrahydro-1H-pyrrolo[3,2-c]pyridin-1-yl}acetic acid], the IC50 came out at 13 nM.
Take `Cc1c(Cc2ccccc2S(=O)(=O)c2cccc(F)c2)c2c(n1CC(=O)O)CCNC2=O` [Example 12, (3-{2-[(3-Fluorophenyl)sulfonyl]benzyl}-2-methyl-4-oxo-4,5,6,7-tetrahydro-1H-pyrrolo[3,2-c]pyridin-1-yl)acetic acid]: the IC50 was found to be 6.2 nM.
For `Cc1c(Cc2ccccc2S(=O)(=O)c2ccc(Cl)cc2)c2c(n1CC(=O)O)CCNC2=O` [Example 14, (3-{2-[(4-Chlorophenyl)sulfonyl]benzyl}-2-methyl-4-oxo-4,5,6,7-tetrahydro-1H-pyrrolo[3,2-c]pyridin-1-yl)acetic acid] the value was 8.4 nM.
For `COc1ccc(S(=O)(=O)c2ccccc2Cc2c3c(n(CC(=O)O)c2C)CCNC3=O)cc1` [Example 15, (3-{2-[(4-Methoxyphenyl)sulfonyl]benzyl}-2-methyl-4-oxo-4,5,6,7-tetrahydro-1H-pyrrolo[3,2-c]pyridin-1-yl)acetic acid] the value was 3.9 nM.
For `Cc1c(Cc2ccccc2S(=O)(=O)c2ccc(OC(F)(F)F)cc2)c2c(n1CC(=O)O)CCNC2=O` [Example 16, [2-Methyl-4-oxo-3-(2-{[4-(trifluoromethoxy)phenyl]sulfonyl}benzyl)-4,5,6,7-tetrahydro-1H-pyrrolo[3,2-c]pyridin-1-yl]acetic acid] the value was 6.9 nM.
As for `Cc1c(Cc2ccccc2S(=O)(=O)c2ccccc2F)c2c(n1CC(=O)O)CCNC2=O` [Example 17, (3-{2-[(2-Fluorophenyl)sulfonyl]benzyl}-2-methyl-4-oxo-4,5,6,7-tetrahydro-1H-pyrrolo[3,2-c]pyridin-1-yl)acetic acid], the IC50 amounted to 3.6 nM.
For `Cc1c(Cc2ccccc2S(=O)(=O)c2ccccc2)c2c(n1[C@H](C)C(=O)O)CCNC2=O` [Example 20, (2R)-2-{2-Methyl-4-oxo-3-[2-(phenylsulfonyl)benzyl]-4,5,6,7-tetrahydro-1H-pyrrolo [3,2-c]pyridin-1-yl}propanoic acid] the value was 9.2 nM; for `COc1cccc(Cc2c3c(n(CC(=O)O)c2C)CCNC3=O)c1S(=O)(=O)c1ccccc1` [Example 21, {3-[3-Methoxy-2-(phenylsulfonyl)benzyl]-2-methyl-4-oxo-4,5,6,7-tetrahydro-1H-pyrrolo[3,2-c]pyridin-1-yl}acetic acid], 20 nM; for `Cc1c(Cc2ccccc2S(=O)(=O)C2CCCCC2)c2c(n1CC(=O)O)CCNC2=O` [Example 23, {3-[2-(Cyclohexylsulfonyl)benzyl]-2-methyl-4-oxo-4,5,6,7-tetrahydro-1H-pyrrolo[3,2-c]pyridin-1-yl}acetic acid], 27 nM.
In the case of `Cc1c(Cc2ccccc2S(=O)(=O)N2CCOCC2)c2c(n1CC(=O)O)CCNC2=O` [Example 24, {2-Methyl-3-[2-(morpholin-4-ylsulfonyl)benzyl]-4-oxo-4,5,6,7-tetrahydro-1H-pyrrolo[3,2-c]pyridin-1-yl}acetic acid], the IC50 was 20 nM.
With `Cc1c(Cc2ccccc2S(=O)(=O)c2ccccc2)c2c(n1CC(=O)O)CCN(C)C2=O` [Example 27, {2,5-Dimethyl-4-oxo-3-[2-(phenylsulfonyl)benzyl]-4,5,6,7-tetrahydro-1H-pyrrolo[3,2-c]pyridin-1-yl}acetic acid], the IC50 was found to be 5.4 nM.
For `COC(=O)c1ccc(Cc2c3c(n(CC(=O)O)c2C)CCNC3=O)c(S(=O)(=O)c2ccccc2)c1` [Example 28, {3-[4-(Methoxycarbonyl)-2-(phenylsulfonyl)benzyl]-2-methyl-4-oxo-4,5,6,7-tetrahydro-1H-pyrrolo[3,2-c]pyridin-1-yl}acetic acid] the value was 11 nM.
For `Cc1c(Cc2ccc(C(=O)O)cc2S(=O)(=O)c2ccccc2)c2c(n1CC(=O)O)CCNC2=O` [Example 29, 4-{[1-(Carboxymethyl)-2-methyl-4-oxo-4,5,6,7-tetrahydro-1H-pyrrolo[3,2-c]pyridin-3-yl]methyl}-3-(phenylsulfonyl)benzoic acid] the value was 18 nM; for `CNC(=O)c1ccc(Cc2c3c(n(CC(=O)O)c2C)CCNC3=O)c(S(=O)(=O)c2ccccc2)c1` [Example 31, {2-Methyl-3-[4-[(methylamino)carbonyl]-2-(phenylsulfonyl)benzyl]-4-oxo-4,5,6,7-tetrahydro-1H-pyrrolo[3,2-c]pyridin-1-yl}acetic acid], 9.5 nM.
For `COc1cccc(S(=O)(=O)c2ccccc2Cc2c3c(n(CC(=O)O)c2C)CCNC3=O)c1` [Example 34, (3-{2-[(3-Methoxyphenyl)sulfonyl]benzyl}-2-methyl-4-oxo-4,5,6,7-tetrahydro-1H-pyrrolo[3,2-c]pyridin-1-yl)acetic acid] the value was 12 nM; for `Cc1c(Cc2ccccc2S(=O)(=O)c2ccccc2)c2c(n1CC(=O)O)CCN(Cc1ccccc1)C2=O` [Example 36, {5-Benzyl-2-methyl-4-oxo-3-[2-(phenylsulfonyl)benzyl]-4,5,6,7-tetrahydro-1H-pyrrolo[3,2-c]pyridin-1-yl}acetic acid], 1.5 nM; for `Cc1c(Cc2cc(F)ccc2S(=O)(=O)c2ccccc2)c2c(n1CC(=O)O)CCNC2=O` [Example 37, {3-[5-Fluoro-2-(phenylsulfonyl)benzyl]-2-methyl-4-oxo-4,5,6,7-tetrahydro-1H-pyrrolo[3,2-c]pyridin-1-yl}acetic acid], 3.7 nM.
As to `Cc1c(Cc2ccc(S(=O)(=O)Cc3ccccc3)cc2)c2c(n1CC(=O)O)CCNC2=O` [Example 39, {3-[4-(Benzylsulfonyl)benzyl]-2-methyl-4-oxo-4,5,6,7-tetrahydro-1H-pyrrolo[3,2-c]pyridin-1-yl}acetic acid], the IC50 was 2.9 nM.
With `Cc1c(Cc2cc(Br)ccc2S(=O)(=O)c2ccccc2)c2c(n1CC(=O)O)CCNC2=O` [Example 42, {3-[5-Bromo-2-(phenylsulfonyl)benzyl]-2-methyl-4-oxo-4,5,6,7-tetrahydro-1H-pyrrolo[3,2-c]pyridin-1-yl}acetic acid], the IC50 is 3.9 nM.
For `Cc1c(Cc2cccn2S(=O)(=O)c2ccccc2)c2c(n1CC(=O)O)CCNC2=O` [Example 44, (2-Methyl-4-oxo-3-{[1-(phenylsulfonyl)-1H-pyrrol-2-yl]methyl}-4,5,6,7-tetrahydro-1 H-pyrrolo[3,2-c]pyridin-1-yl)acetic acid] the value was 5.9 nM; for `Cc1c(Cc2ccccc2S(=O)(=O)c2ccccc2)c2c(n1CC(=O)O)CC(C)(C)NC2=O` [Example 58, {2,6,6-Trimethyl-4-oxo-3-[2-(phenylsulfonyl)benzyl]-4,5,6,7-tetrahydro-1H-pyrrolo[3,2-c]pyridin-1-yl}acetic acid], 4.5 nM; for `Cc1c(Cc2ccccc2S(=O)(=O)c2ccc(F)cc2)c2c(n1CC(=O)O)CC(C)(C)NC2=O` [Example 60, (3-{2-[(4-Fluorophenyl)sulfonyl]benzyl}-2,6,6-trimethyl-4-oxo-4,5,6,7-tetrahydro-1 H-pyrrolo[3,2-c]pyridin-1-yl)acetic acid], 5 nM.
For `COc1ccc(S(=O)(=O)c2ccc(F)cc2)c(Cc2c3c(n(CC(=O)O)c2C)CC(C)(C)NC3=O)c1` [Example 62, (3-{2-[(4-Fluorophenyl)sulfonyl]-5-methoxybenzyl}-2,6,6-trimethyl-4-oxo-4,5,6,7-tetrahydro-1H-pyrrolo[3,2-c]pyridin-1-yl)acetic acid] the value was 4.8 nM.

For the origin of these results see EP2526945A1, “New CRTH2 Antagonists” (Almirall, S.A., priority 2011, dated 2012).
